Entries after “also recorded” stand apart in the source; their conditions may differ.
Legend:
[1] = target: T1, human HO-1 (hHO-1) in transfected astroglia (Homo sapiens, UniProt P09601); experiment: HO enzyme activity (bilirubin formation) in hHO-1-transfected astrocytes; assay type: cell-based; details: 6.5 μM
T1 construct: containing the entire protein-coding region (866 bp) of the human HO-1 gene; expressed in transfected cells; host or cells: primary rat astrocytes, transient transfection with pcDNA3.1/Zeo.CMV.Flag.hHO-1 (Lipofectamine 2000)
T1 sequence (P09601 1-288): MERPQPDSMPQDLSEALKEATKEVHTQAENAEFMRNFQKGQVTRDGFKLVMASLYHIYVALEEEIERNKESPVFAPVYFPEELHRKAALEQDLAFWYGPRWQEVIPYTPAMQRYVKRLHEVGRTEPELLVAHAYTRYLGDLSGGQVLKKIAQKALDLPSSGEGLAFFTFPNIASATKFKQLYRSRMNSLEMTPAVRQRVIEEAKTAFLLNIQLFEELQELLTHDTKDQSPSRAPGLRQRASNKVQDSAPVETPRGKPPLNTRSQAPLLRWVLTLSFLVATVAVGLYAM
Method: Upon reaching >90% confluence, 1×10^6 cells were transiently transfected with 4.0 μg of plasmid DNA-Lipofectamine 2000 complex using Lipofectamine 2000 method according to manufacturer instructions (Invitrogen). […] 12 μg of plasmid DNA and 16 μl of Lipofectamine 2000 reagent were diluted in 1.5 mL opti-MEM I reduced serum medium and incubated for 5 minutes at room temperature with gentle mixing. The two solutions were combined, incubated at room temperature for 20 minutes to promote formation of DNA-lipid complexes and administered to the cells. 2 mL opti-MEM I reduced serum medium was added to the flasks to ensure coverage of the monolayer by the transfection mixture. Following incubation for 6 hours at 37° C., the transfection mixture was replaced with 10 mL of complete media without antibiotics.
A young adult male rat was gas-anesthetized, laid on ice and systemically perfused with ice-cold 0.9% NaCl to get rid of all blood from liver. The liver was then excised on ice and transferred to a cold room (4° C.) and cut into small pieces in cold 0.9% NaCl (3 mL per gram of tissue) with surgical scissors in and placed in a 50 mL tube. The tissue chunks were homogenized with an electric tissue homogenizer and centrifuged at 150×g for […] at 4° C. Similarly, all of the following steps, including centrifugations, were performed at 4° C. The supernatant was centrifuged at 18,000×g for 10 min and further at 30,000×g for 30 min. A saturated solution of ammonium sulfate was added to the 30,000×g supernatant to attain 40% saturation and placed on ice for 10 min. The mixture was centrifuged at 10,000×g for 10 min and supernatant was recovered and transferred to a fresh tube. Sixty percent of saturation was achieved by adding saturation solution of ammonium sulfate to the supernatant. The mixed solution was centrifuged again at 10,000×g for 10 min and […]. […] The dialysate was centrifuged at 10,000 g for 10 min and pellet was discarded. The protein concentration of the supernatant was measured with Bradford reagent (BioRad laboratories, Hercules, Calif.) and adjusted to 10 mg/mL with 0.01 M KPO4, pH7.4. The supernatant was aliquoted and stored at −20° C. ready for use.
Cytosol extracts were prepared for HO activity measurement by the method of Ryter (Ryter, Kvam, Tyrrell 2000). Astroglial monolayers were washed with ice-cold PBS and scraped in ice-cold PBS-EDTA (1 mM, pH 8.0) containing 50 μg/mL protease inhibitor (AEBSF), centrifuged at 150×g at 4° C. and resuspended in 20 mM Tris-HCl (pH 7.4) and 0.25 M sucrose containing protease inhibitors. Cell suspensions were sonicated on ice 2×15 s at 20 W and centrifuged for 20 min at 4° C. at 15,000×g. Protein concentration of supernatant was measured with Bradford method. […] Reaction mixtures were incubated at 37° C. in the dark for 60 min with hard vortex every 10 min. […] HO activity was calculated as nanomoles bilirubin per milligram protein per min, assuming an extinction coefficient of 40/mM/cm in chloroform (see FIG. 8).
Cells were rinsed twice with cold PBS (pH 7.4) and scraped in iced lysis buffer consisting of 1% Nonidet P-40, 50 mM Tris.HCl (pH 7.4), 30 mM NaCl, 25 mM β-glycerophosphate, 10 mM EDTA, 10 mM EGTA, 1 mM MgCl2, and protease inhibitors (10 mM sodium fluoride, 50 μg/mL AEBBSF, 5 μg/mL leupeptin, 5 μg/mL pepstatin, 5 μg/mL aprotinin). […] Protein contents were determined using the Bradford method. […]

[2] = tested on: PC-3 (human prostate carcinoma); experiment: Prostate carcinoma model PC-3 in SCID mice
From the text: • Species and strain: Mouse (Mus musculus); female SCID (MDA231 and OVCAR3), male SCID (PC-3, HCT116); male CD57 B16 mice (BL16-BL6) • Age: 6-8 weeks old. • Supplier: Charles River Laboratories, Inc., St-Constant, Quebec, Canada. • Acclimation: Mice were acclimated to laboratory conditions for approximately 1 week prior to tumor cell inoculation. • Identification: Mice were identified by ear punch combination. • Housing: Mice were housed in groups of 3-5 in a designated animal facility with a temperature of 22° C., a relative humidity of 40-50%, and a 12 hr light/dark cycle.
PC-3 (human prostate carcinoma). These cells were originally received from the ATCC. Early passage cells (tested free of mycoplasma) were grown to 60% confluence in DMEM medium supplemented with 10% fetal bovine serum, and antibiotics. Cell harvesting was performed using trypsin-EDTA solution.
Exponentially growing cells were harvested using trypsin-EDTA solution. […] Cell viability was confirmed by trypan blue staining. […] One to 2 millions cells suspended in 0.1 mL phosphate buffer solution was implanted into the mammary fat pad (MCF7) or subcutaneously into the axillary region of the right flank of recipient SCID mice. All animals were inoculated at the same site.
Mice were subjected to general examination on daily basis. […] Control groups received the vehicle alone. Chemotherapy drugs were also given by intraperitoneal route according to the schedule described below.
Primary tumor growth was monitored every second to fourth day using calipers. Relative tumor volume (cm^3) was determined by the formula:
Body weights were monitored every third to fifth day. Animals experiencing signs of discomfort were sacrificed immediately (in some cases they were replaced by spared mice). […] Mice were sacrificed by cervical dislocation and immediately subjected to full autopsy.

[3] = Pharmacokinetic evaluation of QC-199 in mouse plasma, IV infusion; assay type: in vivo
Method: Regular male CD1 mice, 6 weeks old, were obtained from Charles River Laboratories, St. Zotique, PQ, Canada. The mice weighed 22-28 g. The experiments were approved by the Animal Care Committee, McGill University, Montreal, Quebec. The animals were housed in individual cages and were fed standard rodent chow and water ad libitum. Mice weights were measured with a digital balance accurate to 0.05 g and then received QC-199 at the indicated doses either orally, or via i.p. injections or following i.v. slow infusion. In the case of i.v. injection or i.v. infusion, mice were anesthetized using isoflurane-based system (DISPOMED, MODUFLEX COMPACT NRB, 3975-0800-000). For the infusion, a mini pump (NE-1800, New Era Pump Systems, Inc.) was used to infuse the compound via the tail vein during a 2 h period. In one study, blood and brain tissue samples were collected at various time points after administration of QC-199 using EDTA tubing (Das Original S-Monovette EDTA KE/1.2 ml lot.9094102 and Needle for S-Monovette 22G lot. 8073401) via cardiac puncture and immediately stored at 4° C. Serum was collected after the samples were centrifuged 2200×, 4° C. for 20 minutes and stored at −80° C. until analysis. For the brain tissue collection, skin of mice was removed and brain was carefully dissected out from the skull, transferred into a Petri dish, briefly washed with ice-cold phosphate-buffered saline (PBS), and immediately stored at −80° C. until further analysis.
The assay of QC-199 in mouse plasma and brain samples was carried out using qualified LC/MS/MS assay methods.

[4] = male, CD-1, mouse, in vivo, IV infusion

Compound	HO activity in HO-1-transfected astroglia ([1]; 18 h, hHO-1-transfected cells, hydrochloride)	expression level of flag-tagged HO-1 protein ([1]; transiently transfected cells)	Body Weights (g) d8 (mean + SE) ([2]; PC-3 mice, treatment day 8) [g]	Body Weights (g) d42 (mean + SE) ([2]; PC-3 mice, treatment day 42) [g]	inhibition of tumor growth compared to vehicle alone ([2]; QC-56 60 mg/kg/ip, Taxol 10 mg/kg)	AUC_%Extrap_obs ([3]; IV infusion) [%]	AUC(0-inf) [3, 4] [µg·h/mL]	Tmax [3, 4] [h]	half-life ([3]; male, CD-1, mouse, in vivo, IV infusion, from Lambda z, read-out: T½ (converted)) [h]	AUC ([3]; male, CD-1, mouse, in vivo, IV infusion, read-out: AUCall (0-24 h)) [µg·h/mL]	Cmax ([3]; mouse, 90 min IV infusion, male CD-1 mice) [ng/mL]
Brc1ccc(CCC2(Cn3ccnc3)OCCO2)cc1.Cl [QC-56, 1-((2-(2-(4-Bromophenyl)ethyl)-1,3-dioxolan-2-yl)methyl)-1H-imidazole hydrochloride]	suppressed to levels akin to those of non-transfected and sham-transfected controls; also recorded: significantly attenuated; also recorded: significantly decreased	without affecting the expression level of flag-tagged HO-1 protein	22.30 ± 7.88	18.10 ± 7.38	approximately 25%	–	–	–	–	–	–
Brc1ccc(CCCCn2ccnc2)cc1.Cl [QC-199, 1-[4-(4-bromophenyl)butyl]-1H-imidazole hydrochloride]	–	–	–	–	–	37	224	3	18	141	8000

Source: patent publication US20140155445A1, “Compounds and Methods for Treating Cancer and Diseases of the Central Nervous System” (Osta Biotechnologies Inc., priority 2007, published 2014)
